From patent US20230290452A1, “Electronic Health Record (EHR)-Based Classifier for Acute Respiratory Distress Syndrome (ARDS) Subtyping” (Endpoint Health Inc., priority 2020, published 2023)

Key:
Assay type in all cases: in vivo, human
[1] = tested on: ARDS patients; assay: eICU (v1) dataset, statin intervention by Model C.4 subphenotype; design: Alive: unit not given here; conditions: for Alive / Dead / Mortality: no consideration to number doses and minimum dose size; for Mortality Rate: admitted with drug or initiated during ICU stay
From the text: The dataset from the eICU (v1) dataset was used for analysis. The intervention of interest was statins.
The individual statins were then examined with no consideration to number of doses and minimum dose size. Using this methodology, there were several differential responses identified (bolded and underlined cells as shown below in Table 81).

[2] = tested on: ARDS patients; assay: as above; design: Alive: unit not given here
[3] = tested on: ARDS patients; assay: eICU data filtered for patients without prior indication for statin use, statin intervention by subphenotype
From the text: This included patients with history of angina, congestive heart failure, coronary artery bypass grafting, multiple coronary artery bypass, hypertension requiring treatment, previous acute myocardial infarction, peripheral vascular disease, previous coronary intervention procedure, stroke, and/or transient ischemic attack.

[4] = tested on: COVID-19 patients; assay: CoDEX study dataset, dexamethasone vs placebo by Model C.4 subphenotype
From the text: The dataset from the CoDEX study was used for analysis. The CoDEX study involved treating COVID-19 patients with dexamethasone. K-means clustering was applied using Model C.4 described above in Table 70 and patients were separated into two clusters assigned to Subphenotype A and Subphenotype B. Tables 75A and 75B show the corresponding results.

[5] = tested on: ARDS patients; assay: ARMA-KARMA-LARMA study dataset, lisofylline and ketoconazole vs placebo by subphenotype; conditions: for Mortality: ARMA-KARMA-LARMA; for Dead 90: 1 0, Percent: mortality
From the text: The dataset from the ARMA-KARMA-LARMA study was used for analysis. Interventions in the study included lisofylline and ketoconazole.

[6] = tested on: ARDS patients; assay: LASRS study dataset, methylprednisolone vs placebo by Model C.4 subphenotype; conditions: for Dead 90: 1 0, Frequency: dead at 90 days; for Mortality: cohort receiving methylprednisolone
From the text: The dataset from the LASRS study was used for analysis. The LASRS study involved administration of corticosteroids, specifically methylprednisolone. K-means clustering was applied using Model C.4 described above in Table 70 and patients were separated into two subphenotypes based on the K-means cluster. Overall mortality was 40% in Subphenotype B and 28.57% in Subphenotype A (p = 0.3287). Within Subphenotype B, mortality rates were 40% regardless of whether the patient received methylprednisolone or a placebo; however, in Subphenotype A, mortality was 50% in the cohort receiving methylprednisolone, compared with 9.09% in the placebo cohort (p = 0.0382).

[7] = admitted with drug or initiated during ICU stay, All Patients
[8] = admitted with drug or initiated during ICU stay, Subphenotype A
[9] = admitted with drug or initiated during ICU stay, Subphenotype B
[10] = initiated during ICU stay, All Patients
[11] = initiated during ICU stay, Subphenotype A
[12] = initiated during ICU stay, Subphenotype B
[13] = on drug at time of ICU admit, All Patients
[14] = on drug at time of ICU admit, Subphenotype A
[15] = on drug at time of ICU admit, Subphenotype B
[16] = Patients administered lisofylline (title), Subphenotype A
[17] = Patients administered lisofylline (title), Subphenotype B
[18] = Subphenotype A patients, not dead at 90 days
[19] = Subphenotype B patients, not dead at 90 days
[20] = active arm vs placebo, Subphenotype A patients
[21] = active arm vs placebo, Subphenotype B patients

`CC[C@H](C)C(=O)O[C@H]1C[C@@H](C)C=C2C=C[C@H](C)[C@H](CC[C@@H]3C[C@@H](O)CC(=O)O3)[C@H]21` [Lovastatin] was tested, and the Alive ([1]; All Patients) was 12, the Dead ([1]; All Patients) was 1 and the Mortality ([1]; All Patients) was 8%. For the same compound, the Alive ([1]; Subphenotype A) was 10, the Dead ([1]; Subphenotype A) was 0 and the Mortality ([1]; Subphenotype A) was 0%. The Alive ([1]; Subphenotype B) was 2, the Dead ([1]; Subphenotype B) was 1 and the Mortality ([1]; Subphenotype B) was 33%.

Compound `CC[C@H](C)C(=O)O[C@H]1C[C@H](O)C=C2C=C[C@H](C)[C@H](CC[C@@H](O)C[C@@H](O)CC(=O)O)[C@H]21` [Pravastatin] has an Alive ([1]; All Patients) of 29, a Dead ([1]; All Patients) of 6 and a Mortality ([1]; All Patients) of 17%. For the same compound, the Alive ([1]; Subphenotype A) was 20, the Dead ([1]; Subphenotype A) was 4 and the Mortality ([1]; Subphenotype A) was 17%. The Alive ([1]; Subphenotype B) was 9, the Dead ([1]; Subphenotype B) was 2 and the Mortality ([1]; Subphenotype B) was 18%.

With `CC(C)c1nc(N(C)S(C)(=O)=O)nc(-c2ccc(F)cc2)c1/C=C/[C@@H](O)C[C@@H](O)CC(=O)O` [Rosuvastatin] the Alive ([1]; All Patients) was 32, the Dead ([1]; All Patients) was 4 and the Mortality ([1]; All Patients) was 11%. The Alive ([1]; Subphenotype A) was 23, the Dead ([1]; Subphenotype A) was 2 and the Mortality ([1]; Subphenotype A) was 8%. The Alive ([1]; Subphenotype B) was 9, the Dead ([1]; Subphenotype B) was 2 and the Mortality ([1]; Subphenotype B) was 18%.

`CC(C)c1c(C(=O)Nc2ccccc2)c(-c2ccccc2)c(-c2ccc(F)cc2)n1CC[C@@H](O)C[C@@H](O)CC(=O)O` [atorvastatin] was tested, and the “Mortality Rate” value ([1]; All Patients) was 15.70, the Alive ([1]; All Patients) was 289 and the Dead ([1]; All Patients) was 54. For the same compound, the Mortality ([1]; All Patients) was 16%, the Alive ([1]; Subphenotype A) was 209 and the Dead ([1]; Subphenotype A) was 26. The Mortality ([1]; Subphenotype A) was 11%, the Alive ([1]; Subphenotype B) was 80 and the Dead ([1]; Subphenotype B) was 28. For the same compound, the Mortality ([1]; Subphenotype B) was 26%, the Alive [2, 7] was 290 and the Dead [2, 7] was 54. The Alive [2, 8] was 209, the Dead [2, 8] was 26 and the “Mortality Rate” value [2, 8] was 11.06. For the same compound, the Alive [2, 9] was 81, the Dead [2, 9] was 28 and the “Mortality Rate” value [2, 9] was 25.69. The Alive [2, 10] was 210, the Dead [2, 10] was 40 and the “Mortality Rate” value [2, 10] was 16. For the same compound, the Alive [2, 11] was 149, the Dead [2, 11] was 19 and the “Mortality Rate” value [2, 11] was 11.31. The Alive [2, 12] was 61, the Dead [2, 12] was 21 and the “Mortality Rate” value [2, 12] was 25.61. The Alive [2, 13] was 80, the Dead [2, 13] was 14 and the “Mortality Rate” value [2, 13] was 14.89. The Alive [2, 14] was 60, the Dead [2, 14] was 7 and the “Mortality Rate” value [2, 14] was 10.45. For the same compound, the Alive [2, 15] was 20, the Dead [2, 15] was 7 and the “Mortality Rate” value [2, 15] was 25.93. For the same compound, the Alive [3, 7] was 51, the Dead [3, 7] was 12 and the “Mortality Rate” value [3, 7] was 19.05. The Alive [3, 8] was 40, the Dead [3, 8] was 6 and the “Mortality Rate” value [3, 8] was 13.04. For the same compound, the Alive [3, 9] was 11, the Dead [3, 9] was 6 and the “Mortality Rate” value [3, 9] was 35.29. The Alive [3, 10] was 42, the Dead [3, 10] was 9 and the “Mortality Rate” value [3, 10] was 17.65. For the same compound, the Alive [3, 11] was 34, the Dead [3, 11] was 5 and the “Mortality Rate” value [3, 11] was 12.82. For the same compound, the Alive [3, 12] was 8, the Dead [3, 12] was 4 and the “Mortality Rate” value [3, 12] was 33.33. The Alive [3, 13] was 9, the Dead [3, 13] was 3 and the “Mortality Rate” value [3, 13] was 25. The Alive [3, 14] was 6, the Dead [3, 14] was 1 and the “Mortality Rate” value [3, 14] was 14.29. For the same compound, the Alive [3, 15] was 3, the Dead [3, 15] was 2 and the “Mortality Rate” value [3, 15] was 40.

`C[C@@H]1C[C@H]2[C@@H]3CCC4=CC(=O)C=C[C@]4(C)[C@@]3(F)[C@@H](O)C[C@]2(C)[C@@]1(O)C(=O)CO` [dexamethasone] was tested, and the “28-day Mortality” value ([4]; Subphenotype A) was 54.72%, the “Increase in number of vent free days versus placebo” value ([4]; Subphenotype A) was 45% and the “Vent Free Days” value ([4]; Subphenotype A) was 8.81 days. For the same compound, the “28-day Mortality” value ([4]; Subphenotype B) was 62.50%, the “Increase in number of ventilator free days versus placebo” value ([4]; Subphenotype B) was 101% and the “Vent Free Days” value ([4]; Subphenotype B) was 5.09 days.

With `C[C@@H](O)CCCCn1c(=O)c2c(ncn2C)n(C)c1=O` [lisofylline] the Mortality ([5]; Subphenotype A, patients who received lisofylline) was 31.4%, the Mortality ([5]; Subphenotype B, patients who got lisofylline) was 40% and the “Dead 90: 0 0, Frequency” value [5, 16] was 36. The “Dead 90: 0 0, Percent” value [5, 16] was 72%, the “Dead 90: 1 0, Frequency” value [5, 16] was 14 and the “Dead 90: 1 0, Percent” value [5, 16] was 28%. For the same compound, the “Dead 90: 0 0, Frequency” value [5, 17] was 51, the “Dead 90: 0 0, Percent” value [5, 17] was 72.86% and the “Dead 90: 1 0, Frequency” value [5, 17] was 19. The “Dead 90: 1 0, Percent” value [5, 17] was 27.14%.

For `C[C@H]1C[C@@H]2[C@H]([C@@H](O)C[C@@]3(C)[C@H]2CC[C@]3(O)C(=O)CO)[C@@]2(C)C=CC(=O)C=C12` [methylprednisolone], the “Dead 90: 1 0, Frequency” value ([6]; Subphenotype A patients) was 5, the “Dead 90: 1 0, Row Percent” value ([6]; Subphenotype A patients, mortality) was 50% and the “Dead 90: 0 0, Frequency” value [6, 18] was 5. The “Dead 90: 0 0, Row Percent” value [6, 18] was 50%, the Mortality ([6]; Subphenotype A) was 50% and the “Dead 90: 1 0, Frequency” value ([6]; Subphenotype B patients) was 18. The “Dead 90: 1 0, Percent” value ([6]; Subphenotype B patients, mortality) was 40%, the “Dead 90: 0 0, Frequency” value [6, 19] was 27 and the “Dead 90: 0 0, Percent” value [6, 19] was 60%. The Mortality ([6]; Subphenotype B) was 40%, the “Dead 90: 0 0, Frequency” value [5, 20] was 24 and the “Dead 90: 0 0, Percent” value [5, 20] was 68.57%. For the same compound, the “Dead 90: 1 0, Frequency” value [5, 20] was 11, the “Dead 90: 1 0, Percent” value [5, 20] was 31.43% and the “Dead 90: 0 0, Frequency” value [5, 21] was 15. For the same compound, the “Dead 90: 0 0, Percent” value [5, 21] was 60%, the “Dead 90: 1 0, Frequency” value [5, 21] was 10 and the “Dead 90: 1 0, Percent” value [5, 21] was 40%.

In the case of `CCC(C)(C)C(=O)O[C@H]1C[C@@H](C)C=C2C=C[C@H](C)[C@H](CC[C@@H]3C[C@@H](O)CC(=O)O3)[C@H]21` [simvastatin], the “Mortality Rate” value ([1]; All Patients) is reported as 12.87, the Alive ([1]; All Patients) is reported as 167 and the Dead ([1]; All Patients) is reported as 26. It also gave a Mortality ([1]; All Patients) of 13%, an Alive ([1]; Subphenotype A) of 122 and a Dead ([1]; Subphenotype A) of 10. For the same compound, the Mortality ([1]; Subphenotype A) was 8%, the Alive ([1]; Subphenotype B) was 45 and the Dead ([1]; Subphenotype B) was 16. It also gave a Mortality ([1]; Subphenotype B) of 26%, an Alive [2, 7] of 176 and a Dead [2, 7] of 26. The Alive [2, 8] was 126, the Dead [2, 8] was 10 and the “Mortality Rate” value [2, 8] was 7.35. For the same compound, the Alive [2, 9] was 50, the Dead [2, 9] was 16 and the “Mortality Rate” value [2, 9] was 24.24. For the same compound, the Alive [2, 10] was 89, the Dead [2, 10] was 15 and the “Mortality Rate” value [2, 10] was 14.42. For the same compound, the Alive [2, 11] was 63, the Dead [2, 11] was 6 and the “Mortality Rate” value [2, 11] was 8.70. The Alive [2, 12] was 26, the Dead [2, 12] was 9 and the “Mortality Rate” value [2, 12] was 25.71. For the same compound, the Alive [2, 13] was 87, the Dead [2, 13] was 11 and the “Mortality Rate” value [2, 13] was 11.22. For the same compound, the Alive [2, 14] was 63, the Dead [2, 14] was 4 and the “Mortality Rate” value [2, 14] was 5.97. For the same compound, the Alive [2, 15] was 24, the Dead [2, 15] was 7 and the “Mortality Rate” value [2, 15] was 22.58. The Alive [3, 7] was 23, the Dead [3, 7] was 5 and the “Mortality Rate” value [3, 7] was 17.86. For the same compound, the Alive [3, 8] was 15, the Dead [3, 8] was 1 and the “Mortality Rate” value [3, 8] was 6.25. For the same compound, the Alive [3, 9] was 8, the Dead [3, 9] was 4 and the “Mortality Rate” value [3, 9] was 33.33. For the same compound, the Alive [3, 10] was 6, the Dead [3, 10] was 4 and the “Mortality Rate” value [3, 10] was 40. The Alive [3, 11] was 5, the Dead [3, 11] was 1 and the “Mortality Rate” value [3, 11] was 16.67. The Alive [3, 12] was 1, the Dead [3, 12] was 3 and the “Mortality Rate” value [3, 12] was 75. The Alive [3, 13] was 17, the Dead [3, 13] was 1 and the “Mortality Rate” value [3, 13] was 5.56. The Alive [3, 14] was 10, the Dead [3, 14] was 0 and the “Mortality Rate” value [3, 14] was 0. For the same compound, the Alive [3, 15] was 7, the Dead [3, 15] was 1 and the “Mortality Rate” value [3, 15] was 12.5.
